Assay results as given in PubChem BioAssay (NCI).
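96-well plates; 48 h exposure; 5 concentrations. Endpoints by linear interpolation between flanking doses. Not reached: highest tested concentration assigned. Definition used: TGI = concentration required for complete inhibition of growth.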

Tests used:
Experiment in all cases: NCI-60 cell line screen, 48 h
LXFL 529 NSCLC = tested on: LXFL 529 NSCLC
M14 melanoma = tested on: M14 melanoma
SF-295 CNS = tested on: SF-295 CNS
DMS 273 small cell lung = tested on: DMS 273 small cell lung
MDA-MB-435 = tested on: MDA-MB-435
SNB-75 CNS = tested on: SNB-75 CNS
SNB-19 CNS = tested on: SNB-19 CNS
IGROV1 ovarian = tested on: IGROV1 ovarian
DMS 114 small cell lung = tested on: DMS 114 small cell lung
KM20L2 colon = tested on: KM20L2 colon
OVCAR-8 ovarian = tested on: OVCAR-8 ovarian

| Compound | TGI (LXFL 529 NSCLC) [µM] | TGI (M14 melanoma) [µM] | TGI (SF-295 CNS) [µM] | TGI (DMS 273 small cell lung) [µM] | TGI (MDA-MB-435) [µM] | TGI (SNB-75 CNS) [µM] | TGI (SNB-19 CNS) [µM] | TGI (IGROV1 ovarian) [µM] | TGI (DMS 114 small cell lung) [µM] | TGI (KM20L2 colon) [µM] | TGI (OVCAR-8 ovarian) [µM] |
| --- | --- | --- | --- | --- | --- | --- | --- | --- | --- | --- | --- |
| CCCCNCC(=O)O[C@]1(CC)C(=O)OCc2c1cc1n(c2=O)Cc2cc3ccccc3nc2-1 | 56.8 | 7.23 | 11.7 | 0.236 | 11.3 | 3.44 | > 61.1 | > 39.3 | 4.69 | > 100 |  |
| O=C1C=C(Br)c2c(-c3ccccc3)oc3cccc1c23 | > 100 | 98.2 | > 100 | > 100 | > 100 | 42.5 | > 100 | > 100 | > 100 | > 100 | > 100 |
| C=C1COC(/C=C(\C)CC/C=C(\C)CCl)C1 (stereo unspecified) | > 100 | > 100 | > 100 | > 100 |  | > 100 | > 100 | > 100 | > 100 | > 100 | > 100 |
| O=C1C(=O)N(c2ccc(Cl)c(Cl)c2)C(=O)C(=O)C1c1nc2ccccc2s1 | > 100 | > 100 | > 100 | > 100 |  | > 100 | > 100 | > 100 | > 100 | > 100 | > 100 |
